Entries after “also recorded” stand apart in the source; their conditions may differ.
Assays:
Caco-2 cells = experiment: BrdU cell proliferation ELISA, Caco-2; format: cell-based, human; settings: up to 1,000 μM, 24 h + 24 h
Procedure: Cytotoxicological analysis of ZED1227 was performed using Huh7 (human liver carcinoma, CLS Cell Lines Service GmbH, Eppelheim, Germany) and Caco-2 cells (human epithelial colorectal adenocarcinoma, Sigma Aldrich, Taufkirchen, Germany) with respect to the effect on proliferation and viability, according to the assay protocols provided by the manufacturers of the respective kits. The Cell Proliferation ELISA (BrdU, colorimetric) was purchased from Roche (Mannheim, Germany), whereas the Cell Proliferation and Cytotoxicity Assay EZ4U was purchased from Biomedica (Vienna, Austria). Briefly, Caco-2 cells (in MEM with 1% non-essential amino acid solution, both Sigma Aldrich (Taufkirchen, Germany), 10% fetal bovine serum, 2 mM L-glutamine, 100 U/mL penicillin–streptomycin, all from Gibco) or Huh7 cells (in DMEM low glucose, Sigma Aldrich (Taufkirchen, Germany), 10% fetal bovine serum, 1 mM sodium pyruvate, 100 U/mL penicillin–streptomycin, all from Gibco) were cultured in 96 well plates, using 2.5 μg/mL cycloheximide and 0.2 μg/mL camptothecin-treated cells as positive control. In the 5-bromo-2′-deoxyuridine (BrdU) assay (determination of cell proliferation), the cells were incubated with ZED1227 working solution (1% DMSO in culture medium) up to a concentration of 1,000 μM for 24 h, followed by addition of BrdU into the culture medium and further culturing for 24 h. […]

hTG6 = target: T1, hTG6 (Homo sapiens, UniProt O95932); experiment: Fluorescent transamidation assay (DCC-assay), hTG6; format: biochemical
T1 construct: purchased Zedira T021
T1 sequence (O95932 1-706): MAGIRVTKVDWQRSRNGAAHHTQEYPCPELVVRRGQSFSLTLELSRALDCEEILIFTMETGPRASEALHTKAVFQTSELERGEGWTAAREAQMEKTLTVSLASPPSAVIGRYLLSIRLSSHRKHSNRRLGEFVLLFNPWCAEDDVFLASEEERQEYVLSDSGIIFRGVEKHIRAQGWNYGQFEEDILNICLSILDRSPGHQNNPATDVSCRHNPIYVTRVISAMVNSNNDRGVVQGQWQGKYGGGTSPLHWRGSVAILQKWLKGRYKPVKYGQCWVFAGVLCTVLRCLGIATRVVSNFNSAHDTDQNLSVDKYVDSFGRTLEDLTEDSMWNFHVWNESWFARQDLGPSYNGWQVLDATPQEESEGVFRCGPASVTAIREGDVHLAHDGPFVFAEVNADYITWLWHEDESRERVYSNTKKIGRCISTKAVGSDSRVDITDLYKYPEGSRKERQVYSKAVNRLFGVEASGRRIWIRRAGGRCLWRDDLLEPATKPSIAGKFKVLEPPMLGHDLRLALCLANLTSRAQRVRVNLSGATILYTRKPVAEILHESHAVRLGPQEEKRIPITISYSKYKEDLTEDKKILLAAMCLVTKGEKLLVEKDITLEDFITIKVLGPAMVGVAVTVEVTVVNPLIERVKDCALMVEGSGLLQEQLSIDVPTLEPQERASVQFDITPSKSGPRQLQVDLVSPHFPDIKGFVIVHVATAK
Procedure: Inhibition data were determined using the fluorescent transamidation assay (dansylcadaverine incorporation into glutamine-donor substrate N,N-dimethyl casein, DCC-assay). Briefly, to 15 μL of ZED1227 solution (dissolved and serial diluted in 2% (v/v) DMSO/assay buffer), 285 μL assay buffer [47.5 mM tris(hydroxymethyl)aminomethane, 9.5 mM CaCl2, 9.5 mM glutathione, 2.4% (v/v) glycerol, 190 mM NaCl, pH 8.0] containing dansylcadaverine (15.9 μM), N,N-dimethyl casein (3.8 μM) and the indicated recombinant transglutaminase enzyme [0.95 μg/mL hTG1 (T035), 0.81 μg/mL hTG2 (T022), 0.83 μg/mL hTG6 (T021), all from Zedira] were added, mixed and the kinetic measurement started immediately. […]
Fluorescence emission was continuously monitored for 30 min at λem = 500 nm (λex = 330 nm) and 37 °C using a CLARIOstar fluorescence plate reader (BMG Labtech, Ortenberg, Germany). […] The respective IC50 (and IC90 for TG2) values were calculated by non-linear regression using the MARS software package (BMG Labtech). […]
To facilitate comparability during lead structure optimization and to roughly estimate concentrations needed at the target site, the apparent IC50 values (calculated by four-parameter non-linear fit by MARS software) for irreversible inhibitors are more instructive and are therefore reported. […]

[1] = system: healthy female and male volunteers; experiment: Phase 1 clinical trial in healthy individuals; format: in vivo, human
Procedure: The phase 1 clinical trial involved more than 100 healthy individuals exposed to up to 500 mg of ZED1227. […] Accordingly, the new chemical entity was progressed to a phase 2a clinical study. The efficacy and safety of a 6-week treatment with ZED1227 was assessed in a randomized, double-blind, placebo-controlled, dose-finding trial at three dose levels (10, 50, 100 mg). In this trial, adult patients with well-controlled celiac disease were challenged with 3 g daily gluten intake to assess the protective effect of ZED1227 on the mucosa. […] Based on the promising results a phase 2b study was initiated in celiac disease patients suffering from symptoms despite following a “gluten-free diet”—essentially an adjunct treatment. There will be no gluten challenge in this “real-life” study, which aims to further substantiate the protective effect of ZED1227 and impact on quality of life in celiac disease patients. It remains to be seen whether the promising clinical data obtained so far translate into a viable, commercially successful drug for patient benefit.

CCC(CC)CNC(=O)Cn1cccc(NC(=O)[C@H](CC/C=C/C(=O)OC)NC(=O)c2cncn2C)c1=O [ZED1227, (S,E)-Methyl 7-(1-(2-(2-ethylbutylamino)-2-oxoethyl)-2-oxo-1,2-dihydropyridin-3-ylamino)-6-(1-methyl-1H-imidazole-5-carboxamido)-7-oxohept-2-enoate]
Cytotoxicity: Proliferation, Caco-2 cells (Caco-2 cells): nor did it affect cell proliferation rates; also recorded: no effect up to 1,000 μM no effect up to 1,000 μM no effect up to 1,000 μM no effect up to 1,000 μM
Selectivity hTG6 versus hTG2 (hTG6; ratio of app. IC50 values): 122 fold
IC50 (hTG6; recombinant, transamidation assay, read-out: App. IC50 hTG6): 6.44 µM
Safety and tolerability, phase 1 ([1]; more than 100 healthy individuals, up to 500 mg, EudraCT 2014-003044-13 and 2015-005283-42): safe and well-tolerated
Overall safety and tolerability, phase 1 and phase 2a ([1]; more than 100 healthy volunteers and 123 patients in verum groups): safe and well-tolerated
